Experimental data: patent publication US20130005699A1, “METHODS AND PRODUCTS FOR TREATMENT OF DISEASES” (DMI ACQUISITION CORP., priority 2009, published 2013)

Tests used:
RhoA = assay: Rho activation assay (GLISA) in retinal endothelial cells; type: cell-based, human
Procedure: This experiment was performed using a commercially-available Rho activation assay (GLISA) purchased from Cytoskeleton, Denver, Colo., following the manufacturer's protocol. […] Test compounds diluted in HBSS were placed in the incubator to equilibrate before addition to the cells. Then, 150 μl of each test compound was added to the appropriate culture wells, and the plates were incubated in the incubator for an additional 15 minutes. Then, thrombin was added to appropriate wells. After 1 minute, the cells were washed one time with 1.5 ml phosphate buffered saline and were then lysed with 100 μl GLISA lysis buffer supplemented with protease inhibitors. The extracts were scraped, transferred to microcentrifuge tubes and transferred to ice to preserve the active form of RhoA. All extracts were then cleared of debris by spinning at 10,000 rpms for 2 minutes at 4° C. The supernatants were transferred to new tubes and placed back on ice. Aliquots of each extract were removed for the GLISA assay and for protein determinations. All protein concentrations were within 10%, and the extracts were used at the achieved concentrations (equates to 15 μg total protein per well). The GLISA assay was performed using the reagents supplied in the kit.

[1] = test system: human retinal endothelial cells; assay: TER of retinal endothelial cell monolayers with danazol, steroid receptor antagonists and hormones (Example 10); settings: for TER at 5 minutes: None 250.30; for TER at 60 minutes: None 251.00; for TER at 30 minutes: None 262.31; for TER at 24 Hours: None 287.09
[2] = test system: human retinal endothelial cells; assay: TER of retinal endothelial cell monolayers with danazol and steroid receptor antagonists (Example 6); settings: for TER at 30 minutes: None 216.22; for TER at 120 minutes: None 234.23; for TER at 60 minutes: None 249.25; for TER at 24 Hours: None 312.31
HUVECs = assay: HUVEC invasion (BioCoat Matrigel Invasion Chambers); type: cell-based, human; settings: 24 hours, 5% FCS; FCS raised 5674 FU±77 to 7143±516; concentration of LY294002 not specified (10 μM and 100 μM tested)
Procedure: BioCoat Matrigel Invasion Chambers were purchased from BD Biosciences (San Jose, Calif.). Inserts were rehydrated at 37° C. with 500 μl HBSS for 2 hours prior to use in humidified incubator. Trypsinized HUVECs were washed twice with warm EGM-2 containing 0.1% FCS and added to the upper chamber of the invasion insert at 100,000 cells in a total volume of 250 μl. […]. Non-invasive cells were removed from the upper chamber with moistened cotton swabs and then the inserts were washed twice with HBSS. The inserts were then submerged in 10 μM calcein AM prepared in HBSS and incubated for 4 hours. Fluorescence was determined in a microplate reader at 485 nm excitation and 595 nm emission.
All data is presented as representative experiment done in triplicate. Differences between subsets were analyzed using student t-test in Microsoft Excel. P<0.05 was considered statistically significant.

[3] = test system: human renal glomerular microvascular endothelial cells; assay: Actin stress fiber formation (Example 11), glomerular cells
[4] = test system: human retinal endothelial cells; assay: ECIS resistance (Example 12), retinal cells
[5] = test system: human retinal endothelial cells; assay: Actin stress fiber formation (Example 11), retinal cells
[6] = test system: human retinal endothelial cells; assay: Actin stress fiber formation, rhodamine-phalloidin staining, TNFα (Example 7); settings: TNFα 50 ng/ml, 30 minutes
[7] = test system: human retinal endothelial cells; assay: Actin stress fiber formation, rhodamine-phalloidin staining, VEGF (Example 8); type: cell-based; settings: VEGF 25 ng/ml, 30 minutes
Procedure: . […] To counter-stain for nuclei, 100 μl of a 3 μM DAPI (4,6-diamidino-2-phenylindole, dilactate (Invitrogen)) solution was added to each well. After 5 minutes, the cells were washed two times with 100 μl PBS.

VE-Cadherin = assay: VE-cadherin phosphorylation (immunoprecipitation, Pro-Q diamond / SYPRO ruby densitometry); type: cell-based, human; settings: VEGF 50 ng/ml
Procedure: The plates were immediately treated to lyse the cells as follows. PBS and the lysis buffer (PBS containing 1% Triton X-100 supplemented with phosphatase inhibitor solutions 1 and 2 (Sigma), protease inhibitor (Sigma) and sodium orthovanadate at a final concentration of 2 mM) were cooled to 4° C. The cells were washed two times with 5 ml of the ice cold PBS and then lysed in 500 μl of the ice cold lysis buffer. The resulting protein extracts were transferred to 1.7 ml microcentrifuge tubes, and cell debris was removed by spinning at 4° C. at 10,000 rpm for 10 minutes. Then, 450 μl of the cleared solution was transferred to tubes containing 25 μl of Protein Dynabeads (Invitrogen) coated with 10 μl C19 anti-VE cadherin polyclonal antibody (Santa Cruz Biotechnology) (coating performed following manufacturer's protocol). The extracts and beads were then incubated overnight at 4° C. on an orbital shaker to capture VE cadherin from the extracts. The beads were then washed four times with ice cold lysis buffer. To release the protein from the beads, they were heated for 10 minutes at 75° C. in SDS loading dye containing 20% reducing dye (Invitrogen).
The released proteins were separated in 4-20% polyacrylamide gels (Invitrogen) at 120 volts for 1 hour. To determine phosphorylation and total protein in the gels, Pro-Q diamond (Invitrogen) and SYPRO ruby (Invitrogen) protein staining were sequentially performed following the manufacturer's protocol. The gels were photographed and densitometry performed using a Kodak imaging station.

[8] = passage 12 cells, 1.0 μM, no thrombin, Untreated 0.455
[9] = passage 12 cells, 0.1 U/ml Thrombin + 1.0 μM compound
[10] = 10 nM hormone, alone or followed by 0.1 μM Danazol
[11] = 0.1 μM of each additive, background subtracted, divided by 0.33 cm^2
[12] = 10.0 μM LY294002, alone or followed by 0.1 μM Danazol
[13] = passage 8 cells, 0.1 U/ml Thrombin + 10.0 μM compound
[14] = passage 12 cells, 0.1 U/ml Thrombin + 10.0 μM compound
[15] = S1P 1 μM alone, beginning at 15 minutes, strongest at 3 hours
[16] = 15 minutes, ethanol control 1.00

Question: What does the source list for C[C@@H]1C[C@H]2[C@@H]3CCC4=CC(=O)C=C[C@]4(C)[C@@]3(F)[C@@H](O)C[C@]2(C)[C@@]1(O)C(=O)CO [Dexamethasone, dexamethasone]?
Answer: Percent Inhibition vs. Untreated Control (RhoA; passage 12 cells, 1.0 μM): 5.83%; Mean OD (active RhoA) (RhoA; [8]): 0.428; Mean OD (active RhoA) (RhoA; [9]): 0.826; Percent Inhibition vs. Thrombin (RhoA; [9]): 33.48%

Question: Which “TER at 5 minutes” value [1, 10] does the source give for C[C@]12CC[C@@H]3c4ccc(O)cc4CC[C@H]3[C@@H]1CC[C@@H]2O [Estradiol, estradiol] here?
Answer: 246.50

Question: What about the “TER at 60 minutes” value [1, 10] of the same compound?
Answer: 250.00

Question: And the “TER at 30 minutes” value [1, 10]?
Answer: 245.50

Question: And the “TER at 24 Hours” value [1, 10]?
Answer: 328.33

Question: For C[C@]12CC[C@@H]3c4ccc(O)cc4C[C@@H](CCCCCCCCC[S+]([O-])CCCC(F)(F)C(F)(F)F)[C@H]3[C@@H]1CC[C@@H]2O (some centres unmarked) [Fluvestrant, fluvestrant], which “TER at 30 minutes” value [2, 11] is on record?
Answer: 228.23

Question: What about the “TER at 120 minutes” value [2, 11] of the same compound?
Answer: 258.26

Question: And the “TER at 60 minutes” value [2, 11]?
Answer: 270.27

Question: What about the “TER at 24 Hours” value [2, 11] of the same compound?
Answer: 336.34

Question: What about the “TER at 5 minutes” value [1, 11] of the same compound?
Answer: 223.47

Question: What about the “TER at 60 minutes” value [1, 11] of the same compound?
Answer: 243.99

Question: What about the “TER at 30 minutes” value [1, 11] of the same compound?
Answer: 251.50

Question: What about the “TER at 24 Hours” value [1, 11] of the same compound?
Answer: 279.28

Question: Which results are given for CC(C)(O)C(=O)Nc1ccc([N+](=O)[O-])c(C(F)(F)F)c1 [Hydroxyflutamide, hydroxyflutamide]?
Answer: TER at 30 minutes [2, 11]: 177.18; TER at 120 minutes [2, 11]: 201.20; TER at 60 minutes [2, 11]: 186.19; TER at 24 Hours [2, 11]: 297.30; TER at 5 minutes [1, 11]: 190.44; TER at 60 minutes [1, 11]: 215.97; TER at 30 minutes [1, 11]: 207.46; TER at 24 Hours [1, 11]: 267.27

Question: Which “TER at 30 minutes” value [2, 12] does the source give for O=c1cc(N2CCOCC2)oc2c(-c3ccccc3)cccc12 [LY294002] here?
Answer: 297.30

Question: And the “TER at 120 minutes” value [2, 12]?
Answer: 276.28

Question: What about the “TER at 60 minutes” value [2, 12] of the same compound?
Answer: 354.35

Question: And the “TER at 24 Hours” value [2, 12]?
Answer: 345.35

Question: What about the “Percent Inhibition vs. Untreated Control” value (RhoA; passage 8 cells, 10.0 μM) of the same compound?
Answer: 45.32%

Question: What about the “Mean OD (active RhoA)” value (RhoA; passage 8 cells, 10.0 μM, no thrombin, Untreated 0.102) of the same compound?
Answer: 0.056

Question: And the “Mean OD (active RhoA)” value (RhoA; [13])?
Answer: 0.433

Question: What about the “Percent Inhibition vs. Thrombin” value (RhoA; [13]) of the same compound?
Answer: 27.86%

Question: What about the “Percent Inhibition vs. Untreated Control” value (RhoA; passage 12 cells, 10.0 μM) of the same compound?
Answer: 18.70%

Question: What about the “Mean OD (active RhoA)” value (RhoA; passage 12 cells, 10.0 μM, no thrombin, Untreated 0.455) of the same compound?
Answer: 0.370

Question: What about the “Mean OD (active RhoA)” value (RhoA; [14]) of the same compound?
Answer: 0.685

Question: What about the “Percent Inhibition vs. Thrombin” value (RhoA; [14]) of the same compound?
Answer: 58.73%

Question: And the “fluorescence of invaded cells” value (HUVECs)?
Answer: 5814±153 FU

Question: Which F-actin staining pattern [3, 15] does the source give for CCCCCCCCCCCCC/C=C/[C@@H](O)[C@@H](N)COP(=O)(O)O [S1P, sphingosine-1 phosphate] here?
Answer: showed actin cortical rings

Question: What about the “persistence of increased ECIS” value ([4]; 1 μM of each compound, monitored for 90 hours) of the same compound?
Answer: about 3 hours

Question: What about the “start of increase of ECIS compared to untreated cells, after treatment” value ([4]; S1P 1 μM alone) of the same compound?
Answer: ≤ 15 min

Question: What about the F-actin staining pattern [5, 15] of the same compound?
Answer: showed actin cortical rings

Question: For COc1cc2ncnc(Nc3ccc(Oc4ccccc4)cc3)c2cc1OC [Src-1 Inhibitor], which “Percent Inhibition vs. Untreated Control” value (RhoA; passage 12 cells, 1.0 μM) is on record?
Answer: 23.21%

Question: What about the “Mean OD (active RhoA)” value (RhoA; [8]) of the same compound?
Answer: 0.349

Question: And the “Mean OD (active RhoA)” value (RhoA; [9])?
Answer: 0.534

Question: And the “Percent Inhibition vs. Thrombin” value (RhoA; [9])?
Answer: 85.85%

Question: Which results are given for C[C@]12CC[C@H]3[C@@H](CCC4=CC(=O)CC[C@@]43C)[C@@H]1CC[C@@H]2O [Testosterone, testosterone]?
Answer: TER at 5 minutes [1, 10]: 257.51; TER at 60 minutes [1, 10]: 225.98; TER at 30 minutes [1, 10]: 240.49; TER at 24 Hours [1, 10]: 267.27

Question: For TNFα, which F-actin staining pattern ([3]; TNFα 1 ng/ml alone) is on record?
Answer: stress fibers were seen at all times

Question: What about the F-actin staining pattern [6] of the same compound?
Answer: strong stress fiber development with intensely staining focal points

Question: What about the F-actin staining pattern ([5]; TNFα 1 ng/ml alone) of the same compound?
Answer: stress fibers were seen at all times

Question: With Thrombin as the compound, how does the “Mean OD (active RhoA)” value (RhoA; passage 8 cells, 0.1 U/ml Thrombin alone, Untreated 0.102) read?
Answer: 0.561

Question: What about the “Mean OD (active RhoA)” value (RhoA; passage 12 cells, 0.1 U/ml Thrombin alone, Untreated 0.455) of the same compound?
Answer: 1.013

Question: Which results are given for VEGF?
Answer: F-actin staining pattern [7]: strong stress fiber development; Ratio phosphorylated: total protein (VE-Cadherin; 15 minutes, ethanol control 0.215): 0.481; Relative intensity - ProQ results (phosphorylated protein) (VE-Cadherin; [16]): 1.89; Relative intensity - SYPRO results (total protein) (VE-Cadherin; [16]): 0.84; fold increase of ratio phosphorylated: total protein (VE-Cadherin; versus ethanol control): (2.24 fold
